Among the data in patent US20090170846A1, “INHIBITORS OF THE HIV INTEGRASE ENZYME” (Pfizer Inc, priority 2005, published 2009) are IC50 and EC50 values, retold here.

Where two headings read alike, the source gives them in different places.

In assay [1] the target is T1, Full-length wild type HIV-1 integrase (SF1) (Human immunodeficiency virus type 1 group M subtype B, UniProt P04585).
T1 construct: made in house; host or cells: E. coli BL21 (DE3)
The experiment in a line: Integrase strand-transfer scintillation proximity assay. The format is biochemical. The text has this:
Integrase Strand-Transfer Scintillation Proximity Assay
Oligonucleotides: Oligonucleotide #1-5′-(biotin)[…]-3′ (SEQ ID NO: 1) and oligonucleotide #2-5′-[…]-3′ (SEQ ID NO: 2), were synthesized by TriLink BioTechnologies, Inc. (San Diego, Calif.). The annealed product represents preprocessed viral ds-DNA derived from the LTR U5 sequence of the viral genome. A ds-DNA control to test for non-specific interactions was made using a 3′ di-deoxy derivative of oligonucleotide #1 annealed to oligonucleotide #2. The CA overhang at the 5′ end of the non-biotinylated strand of the ds-DNA was created artificially by using a complimentary DNA oligonucleotide shortened by 2 base pairs. This configuration eliminates the requisite 3′ processing step of the integrase enzyme prior to the strand-transfer mechanism.
Host ds-DNA was prepared as an unlabeled and [^3H]-thymidine labeled product from annealed oligonucleotide #3-5-[…]-3′ (SEQ ID NO: 3), and oligonucleotide #4-1-5′-[…]-3′ (SEQ ID NO: 4), both synthesized by TriLink BioTechnologies, Inc. (San Diego, Calif.). The annealed product had overhanging 3′ ends of poly(dA). Host DNA was custom radiolabeled by PerkinElmer Life Sciences Inc. (Boston, Mass.) using an enzymatic method with a 12/1 ratio of [methyl-^3H]dTTP/cold ds-DNA to yield 5′-blunt end ds-DNA with a specific activity of >900 Ci/mmol. The radiolabeled product was purified using a NENSORB cartridge and stored in stabilized aqueous solution (PerkinElmer). The final radiolabeled product had six [^3H]-thymidine nucleotides at both 5′ ends of the host ds-DNA.
Reagents: Streptavidin-coated polyvinyltoluene (PVT) SPA beads were purchased from Amersham Biosciences (Piscataway, N.J.). Cesium chloride was purchased from Shelton Scientific, Inc. (Shelton, Conn.). White, polystyrene, flat-bottom, non-binding surface, 96-well plates were purchased from Corning. All other buffer components were purchased from Sigma (St. Louis, Mo.) unless otherwise indicated.
Enzyme Construction Full-length wild type HIV-1 integrase (SF1) sequence (amino acids 1-289) was constructed in a pET24a vector (Novagen, Madison, Wis.). The construct was confirmed through DNA sequencing.
Enzyme Purification Full length wild-type HIV Integrase was expressed in E. coli BL21 (DE3) cells and induced with 1 mM isopropyl-1 thio-β-D-galactopyranoside (IPTG) when cells reached an optical density between 0.8-1.0 at 600 nm. Cells were lysed by microfluidation in 50 mM HEPES pH 7.0, 75 mM NaCl, 5 mM DTT, 1 mM 4-(2-Aminoethyl)benzenesulfonylfluoride HCl (AEBSF). Lysate was then centrifuged 20 minutes at 11 k rpm in GSA rotor in Sorvall RC-5B at 4° C. Supernant was discarded and pellet resuspended in 50 mM HEPES pH 7.0, 750 mM NaCl, 5 mM DTT, 1 mM AEBSF and homogenized in a 40 mL Dounce homogenizer for 20 minutes on ice. Homogenate was then centrifuged 20 minutes at 11 k rpm in SS34 rotor in Sorvall RC-5B at 4° C. Supernant was discarded and pellet resuspended in 50 mM HEPES pH 7.0, 750 mM NaCl, 25 mM CHAPS, 5 mM DTT, 1 mM AEBSF. Preparation was then centrifuged 20 minutes at 11 k rpm in SS34 rotor in Sorvall RC-5B at 4° C.
Supernant was then diluted 1:1 with 50 mM HEPES pH 7.0, 25 mM CHAPS, 1 mM DTT, 1 mM AEBSF and loaded onto a Q-Sepharose column pre-equilibrated with 50 mM HEPES, pH 7.0, 375 mM NaCl, 25 mM CHAPS, 1 mM DTT, 1 mM AEBSF. The flow through peak was collected and NaCl diluted to 0.1 M with 50 mM HEPES pH 7.0, 25 mM CHAPS, 1 mM DTT, 0.5 mM AEBSF and loaded onto a SP-Sepharose column pre-equilibrated with 50 mM HEPES pH 7.0, 100 mM NaCl, 25 mM CHAPS, 1 mM DTT, 0.5 mM AEBSF. After washing the column with the equilibration buffer, a 100 to 400 mM NaCl gradient was run. The eluted integrase was concentrated and run on a S-300 gel diffusion column using 50 mM HEPES pH 7.0, 500 mM NaCl, 25 mM CHAPS, 1 mM DTT, 0.5 mM AEBSF. The peak from this column was concentrated to 0.76 mg/mL and stored at −70° C. and later used for strand transfer assays. […]
(In general: In a scintillation proximity assay essentially only radioactivity close to the scintillant gives light.)

Assay [2] relates to RF strain of HIV-1 in CEM-SS cells. Nature of the assay: HIV-1 cell protection assay (XTT dye reduction). The format is cell-based. How it is done:
HIV-1 Cell Protection Assay
The antiviral activities of potential modulator compounds (test compounds) were determined in HIV-1 cell protection assays using the RF strain of HIV-1, CEM-SS cells, and the XTT dye reduction method (Weislow, O, S. et al., J. Natl. Cancer Inst 81: 577-586 (1989)). Subject cells were infected with HIV-1 RF virus at an moi of to affect about a 90% kill (for example, an moi in the range of from about 0.025 to about 0.819) or mock infected with medium only and added at 2×10^4 cells per well, with the addition of approximately 200 μL of medium, into 96 well plates containing half-log dilutions of test compounds. Six days later, 50 μl of XTT solution (1 mg/ml XTT tetrazolium and 20 nM phenazine methosulfate) were added to the wells and the plates were reincubated for four hours. Viability, as determined by the amount of XTT formazan produced, was quantified spectrophotometrically by absorbance at 450 nm.
Data from CPE assays were expressed as the percent of formazan produced in compound-treated cells compared to formazan produced in wells of uninfected, compound-free cells. The fifty percent effective concentration (EC50) was calculated as the concentration of compound that affected an increase in the percentage of formazan production in infected, compound-treated cells to 50% of that produced by uninfected, compound-free cells. The 50% cytotoxicity concentration (CC50) was calculated as the concentration of compound that decreased the percentage of formazan produced in uninfected, compound-treated cells to 50% of that produced in uninfected, compound-free cells. The therapeutic index was calculated by dividing the cytotoxicity (CC50) by the antiviral activity (EC50).

The mark [3] stands for this setting: integrase strand-transfer SPA, read-out: IC50.
[4] abbreviates: Human immunodeficiency virus 1, CEM-SS, 144 h.
Where [5] appears, read: Human immunodeficiency virus 1, 144 h, HIV-1 RF, CEM-SS cells, XTT, six days, read-out: EC50.

The term IC50 denotes the midpoint of a concentration-inhibition curve. As usually defined, the EC50 is the concentration giving half of the maximal effect. As for `O=C(NO)c1cc2c(C(=O)NCC34CCCN3CCC4)cn(Cc3ccc(F)cc3)c2cn1` [Example 25, 1-(4-fluorobenzyl)-N~5~- hydroxy-N~3~-(tetrahydro-1H-pyrrolizin-7a(5H)-ylmethyl)-1H-pyrrolo[2,3-c]pyridine-3,5-dicarboxamide], the 50% inhibitory concentration (IC50) in assay [1] (setting [3]) was 152 nM. This compound came in with a half-maximal effective concentration (EC50) in assay [2] (setting [4]) of 250 nM.
On to `CN(C)C1CCN(C(=O)c2cn(Cc3ccc(F)cc3)c3cnc(C(=O)NO)cc23)C1` (stereo not shown) [Example 26, 3-{[3-(dimethylamino)pyrrolidin-1-yl]carbonyl}-1-(4-fluorobenzyl)-N-hydroxy-1H-pyrrolo[2,3-c]pyridine-5-carboxamide], for which the IC50 in assay [1] (setting [3]) came to 158 nM. The EC50 in assay [2] (setting [4]) worked out at 90 nM.
As to `O=C(NO)c1cc2c(C(=O)NCCN3CCOCC3)cn(Cc3ccc(F)cc3)c2cn1` [Example 27, 1-(4-fluorobenzyl)-N~5~- hydroxy-N~3~-(2-morpholin-4-ylethyl)-1H-pyrrolo[2,3-c]pyridine-3,5-dicarboxamide], in assay [1] (setting [3]), the IC50 stood at 76 nM. This compound also came in with an EC50 in assay [2] (setting [4]) of 38 nM.
Taken in the same sequence, the figures for `Cc1c(CNC(=O)c2cn(Cc3ccc(F)cc3)c3cnc(C(=O)NO)cc23)cnn1C` [Example 28, N~3~-[(1,5-dimethyl-1H-pyrazol-4-yl)methyl]-1-(4-fluorobenzyl)-N~5~- hydroxy-1H-pyrrolo[2,3-c]pyridine-3,5-dicarboxamide] were 46 nM and 100 nM.
Taken in the same sequence, the figures for `O=C(NO)c1cc2c(C(=O)NCCCN3CCCC3=O)cn(Cc3ccc(F)cc3)c2cn1` [Example 29, 1-(4-fluorobenzyl)-N~5~- hydroxy-N~3~-[3-(2-oxopyrrolidin-1-yl)propyl]-1H-pyrrolo[2,3-c]pyridine-3,5-dicarboxamide] were 70 nM and 130 nM.
The like results for `O=C(NO)c1cc2c(C(=O)N3CCCC(CO)C3)cn(Cc3ccc(F)cc3)c2cn1` (stereo not shown) [Example 30, 1-(4-fluorobenzyl)-N-hydroxy-3-{[3-(hydroxymethyl)piperidin-1-yl]carbonyl}-1H-pyrrolo[2,3-c]pyridine-5-carboxamide] were, in that order, 72 nM and 110 nM.
With `CCN1CCCC1CNC(=O)c1cn(Cc2ccc(F)cc2)c2cnc(C(=O)NO)cc12` (stereo not shown) [Example 31, N~3~-[(1-ethylpyrrolidin-2-yl)methyl]-1-(4-fluorobenzyl)-N~5~- hydroxy-1H-pryyolo[2,3-c]pyridine-3,5-dicarboxamide], in assay [1] (setting [3]), the IC50 was determined as 141 nM. Further, the midpoint of the response in assay [2] (setting [4]), the EC50, lay at 200 nM.
The like results for `CN(O)C(=O)c1cc2c(C(=O)NCCN3CCOCC3)cn(Cc3ccc(F)cc3)c2cn1` [Example 32, 1-(4-fluorobenzyl)-N~5~- hydroxy-N~5~-methyl-N~3~-(2-morpholin-4-ylethyl)-1H-pyrrolo[2,3-c]pyridine-3,5-dicarboxamide] were, in that order, 503 nM and 210 nM.
For `CN(O)C(=O)c1cc2c(C(=O)N3CCCC(CO)C3)cn(Cc3ccc(F)cc3)c2cn1` (stereo not shown) [Example 33], the IC50 in assay [1] (setting [3]) is 320 nM. For the same compound, it took 140 nM to reach a half-maximal effect in assay [2] (setting [4]) (EC50).
As to `CN(C)S(=O)(=O)c1cn(Cc2ccc(F)cc2)c2cnc(C(=O)NO)cc12` [Example 34], the half-inhibitory concentration (IC50) in assay [1] (setting [3]) was 136 nM. The 50% effective concentration (EC50) in assay [2] (setting [5]) stood at 47 nM.
On to `CN(O)C(=O)c1cc2c(S(=O)(=O)N(C)C)cn(Cc3ccc(F)cc3)c2cn1` [Example 35, 3-[(dimethylamino)sulfonyl]-1-(4-fluorobenzyl)-N-hydroxy-N-methyl-1H-pyrrolo[2,3-c]pyridine-5-carboxamide], for which the IC50 in assay [1] (setting [3]) was 1030 nM. In assay [2] (setting [5]), the half-maximal effective concentration (EC50) came to 370 nM.
The like results for `NC(=O)[C@@H]1CCCN1S(=O)(=O)c1cn(Cc2ccc(F)cc2F)c2cnc(C(=O)NO)cc12` [Example 36, 3-{[(2S)-2-(aminocarbonyl)pyrrolidin-1-yl]sulfonyl}-1-(2,4-difluorobenzyl)-N-hydroxy-1H-pyrrolo[2,3-c]pyridine-5-carboxamide] were, in that order, 197 nM and 340 nM.
The like results for `O=C(NO)c1cc2c(S(=O)(=O)NCCN3CCOCC3)cn(Cc3ccc(F)cc3F)c2cn1` [Example 37, 1-(2,4-difluorobenzyl)-N-hydroxy-3-{[(2-morpholin-4-ylethyl)amino]sulfonyl}-1H-pyrrolo[2,3-c]pyridine-5-carboxamide] were, in that order, 161 nM and 490 nM.
Turning to `O=C1CN(S(=O)(=O)c2cn(Cc3ccc(F)cc3F)c3cnc(C(=O)NO)cc23)CCN1` [Example 38, 1-(2,4-difluorobenzyl)-N-hydroxy-3-[(3-oxopiperazin-1-yl)sulfonyl]-1H-pyrrolo[2,3-c]pyridine-5-carboxamide], in assay [1] (setting [3]), the IC50 stood at 265 nM. Further, the concentration giving a half-maximal response (EC50) in assay [2] (setting [5]) was found to be 8000 nM.
The like results for `CONC(=O)c1cc2c(S(=O)(=O)N3CCNC(=O)C3)cn(Cc3ccc(F)cc3F)c2cn1` [Example 39, 1-(2,4-difluorobenzyl)-N-methoxy-3-[(3-oxopiperazin-1-yl)sulfonyl]-1H-pyrrolo[2,3-c]pyridine-5-carboxamide] were, in that order, 299 nM and 210 nM.
Taken in the same sequence, the figures for `CONC(=O)c1cc2c(S(=O)(=O)NCCN3CCOCC3)cn(Cc3ccc(F)cc3F)c2cn1` [Example 40, 1-(2,4-difluorobenzyl)-N-methoxy-3-{[(2-morpholin-4-ylethyl)amino]sulfonyl}-1H-pyrrolo[2,3-c]pyridine-5-carboxamide] were 760 nM and 52 nM.
Regarding `CN(O)C(=O)c1cc2c(S(=O)(=O)N3CCNC(=O)C3)cn(Cc3ccc(F)cc3F)c2cn1` [Example 41, 1-(2,4-difluorobenzyl)-N-hydroxy-N-methyl-3-[(3-oxopiperazin-1-yl)sulfonyl]-1H-pyrrolo[2,3-c]pyridine-5-carboxamide], in assay [1], the half-maximal inhibitory concentration (IC50) stood at 1150 nM. Moreover, in assay [2] (setting [5]), the EC50 came out at 3300 nM.
